Results: US20170035691A1, “FOOD MATRICES AND METHODS OF MAKING AND USING” (UNIVERSITY OF MASSACHUSETTS, priority 2014, published 2017)
Converted amounts (≈) assume the structure as drawn.

Assays:
[1] = Rat feeding study: heptadecanoic acid and CoQ10 in duodenum, jejunum, ileum (Example 2); assay type: in vivo; details: for bioavailability in small intestinal tissues: encapsulated within digestible (corn oil) droplets with the smallest size, rat feeding study
Procedure: An animal feeding study was used to test the bioavailability of free fatty acids and CoQ10. Female Sprague Dawley rats (about 200-250 g) were purchased from Charles River Laboratories (Wilmington, Mass.). The Institutional Animal Care and Use Committee of the University of Massachusetts, Amherst, approved all animal procedures. Animals were housed in individual wire-bottomed cages in a windowless room with a 12-h light-dark cycle. After 10 days of adaptation, rats were fasted for 6 hours and 5 ml of emulsion was administered into a rat's stomach using a feeding needle (Roboz Surgical Instrument, Gaithersburg, Md.). Sample administration was conducted five times with 30 min intervals. Thirty min after the final administration, the rats were sacrificed by CO2 gas asphyxiation and blood samples were collected via cardiac puncture. Collected blood samples were allowed to clot for 30 min and then the serum layer was separated by centrifugation at 800 g for 20 min at 4° C. Serum was kept at −80° C. until analysis. The small intestine was flushed with phosphate buffered saline (PBS) five times, and the duodenum, jejunum, and ileum were collected. The intestine samples were kept at −80° C. until fatty acid composition and CoQ10 analyses. The in vivo experiment was carried out once, using three rats per sample analyzed.
Intestine extract was prepared by a method described previously by Tang, P. H., Miles, M. V., Miles, L., Quinlan, J., Wong, B., Wenisch, A., and Bove, K., “Measurement of reduced and oxidized coenzyme Q(9) and coenzyme Q(10) levels in mouse tissues by HPLC with coulometric detection”, Clinica Chimica Acta, 341(1-2):173-84 (2004), which is incorporated herein in its entirety. After thawing the intestine, approximately, 50 mg of intestine was weighed and 1 ml of ice cold 0.15M NaCl solution was added. Intestine sample (about 50 mg) was homogenized on ice and 50 μL of CoQ6 solution (Internal standard) and 25 μL of 1,4-benzoquione (5 mg/mL) solution was added to oxidize CoQ10. After 30 min. incubation at room temperature, 5 ml of 1-propanol was added and then mixed by vortexing for 1 min. Sample was centrifuged at 2,000 g for 5 min and the supernatant was filtered with a 0.1 μm disposable syringe filter (Celltreat, Shirley, Mass.). The oxidized CoQ10 concentration was standardized relative to the tissue weight.
Quantitative analysis was carried out using a high performance liquid chromatography system (Shimadzu Co. Japan) equipped with a pump (LC-10 AT), UV-visible detector (SPD-M10A), and controller (SCL-10A). A reverse phase C-18 column (ODS-2 Hypersil, 200×4.6 mm, 5 μm, Thermo scientific, Waltham, Mass.) was used. The mobile phase comprised of a mixture of 4.2 g sodium acetate anhydrous, 15 mL of glacial acetic acid, 15 mL 2-propanol, 830 mL methanol, and 140 ml hexane. The injection volume was 100 μl, the flow rate was 1 ml/min, UV detection was made at 275 nm and all analysis was performed at room temperature under isocratic conditions.
Lipids were extracted from samples (duodenum, jejunum, ileum) and blood using a standard method by Folch, J., Lees, M., and Stanley, G. H. S., “A simple method for the isolation and purification of total lipids from animal tissues”, Journal of Biological Chemistry, 226(1):497-509 (1957), which is incorporated herein in its entirety, and then the fatty acids were methylated prior to gas chromatography analysis as taught by Park, Y. and Pariza, M. W., “Evidence that commercial calf and horse sera can contain substantial amounts of trans-10,cis-12 conjugated linoleic acid”, Lipids, 33(8):817-19 (1998), which is incorporated herein in its entirety. Tridecenoic acid was used as an internal standard. Methyl esters of fatty acids were analyzed using a GC instrument (GC-17A, Shimadzu, Kyoto, Japan) fitted with a flame-ionization detector. […]

[2] = Curcumin solubility in curcumin-emulsion mixtures, spectrophotometric (Example 3); assay type: physicochemical; details: excipient emulsion, aqueous with cosolvent or surfactant or cyclodextrin, thermodynamic from solid
Procedure: Preparation of curcumin-emulsion, curcumin-oil, and curcumin-buffer mixtures. […] After incubation, selected samples were immediately placed in an ice water and then used for the following experiments. In some experiments, the curcumin was mixed with bulk corn oil or with buffer (PBS) solution rather than an emulsion.
1 mL of supernatant was then mixed with 5 mL chloroform, vortexed, and centrifuged at 1750 rpm for 10 min at ambient temperature. […] The two bottom chloroform layers were combined, and diluted to an appreciate concentration to be analyzed by a UV-VIS spectrophotometer at 419 nm (Ultraspec 3000 pro, GE Health Sciences, USA). A cuvette containing pure chloroform was used as a reference cell.

[3] = Curcumin solubility in curcumin-excipient emulsion mixtures of different droplet size (Example 4); assay type: physicochemical; details: for solubility at 10 min: aqueous with cosolvent or surfactant or cyclodextrin, thermodynamic from solid, after incubation at 100° C.; for amount of curcumin present within the emulsion: 30° C. for 30 min
Procedure: The resulting mixtures were then incubated at either 30° C. for 30 min or 100° C. for 10 min to simulate a salad dressing or a cooking sauce, respectively. After incubation, selected samples were immediately placed in an ice water and then used for the following experiments.
One millilitre of supernatant was then mixed with 5 mL chloroform, vortexed, and centrifuged at 1750 rpm (≈940×G) for 10 min at ambient temperature. […] The two bottom chloroform layers were combined, and diluted to a concentration suitable to be analysed by a UV-VIS spectrophotometer at 419 nm (Ultraspec 3000 pro, GE Health Sciences, Pittsburgh, Pa., USA). A cuvette containing pure chloroform was used as a reference cell.

[4] = Curcumin oil-solubility in bulk corn oil by turbidity (Example 3); assay type: physicochemical; details: for dissolution of curcumin crystals in corn oil (turbidity versus time): 3 mg/mL
Procedure: In some experiments, the change in turbidity with time was measured at a fixed incubation temperature (30 or 100° C.) to determine the kinetics of isothermal dissolution.

[5] = Cross-polarized light microscopy of curcumin crystals (Example 4); assay type: physicochemical
[6] = Cross-polarized light microscopy of curcumin crystals in mixtures (Example 3); assay type: physicochemical
[7] = In vitro digestion model: bioaccessibility of β-carotene crystals mixed with emulsion or buffer (FIG. 6); assay type: in vitro ADME; details: β-carotene crystals mixed with oil-in-water emulsion (4% corn oil) versus buffer solution (PBS) without oil
Procedure: In this exemplary embodiment, β-carotene crystals were initially mixed with either an oil-in-water emulsion (containing 4% corn oil) or a buffer solution (PBS) containing no oil. The resulting mixtures were then passed through an in vitro gastrointestinal model that simulated the mouth, stomach, and small intestine. The bioaccessibility of β-carotene was determined by centrifuging the digesta resulting from a GIT model, and then measuring the fraction of β-carotene in the mixed micelle (middle phase). The GIT model used is described in Salvia-Trujillo, L.; Qian, C.; Martin-Belloso, O.; McClements, D. J., “Influence of Particle Size on Lipid Digestion and β-carotene Bioaccessibility in Emulsions and Nanoemulsions”, Food Chemistry, 141:1472-80 (2013), which is incorporated by reference herein in its entirety and for all purposes. In another instance, the method of these teachings also include using an animal feeding study to verify improvement of oral bioavailability when the predetermined pharmaceutical or nutraceutical is ingested with the food matrix. […]

[8] = Simulated gastrointestinal tract model: β-carotene bioaccessibility of nanoemulsions (Example 1); assay type: in vitro ADME; details: nanoemulsion, 0% corn oil (pure lemon oil system)
Procedure: Each β-carotene-enriched nanoemulsion was passed through a three-step simulated GIT model that consisted of a mouth, gastric, and small intestine phase. The particle size, charge, and microstructure of the samples were measured after incubation in each stage. […]
Small Intestine phase: Digesta samples (30 ml) obtained from the simulated gastric phase were placed in a beaker incubated in a water bath (37° C.) for 10 min and then adjusted to pH 7 with NaOH solution (0.05 or 1 M). […] The amount of free fatty acids released was calculated from the titration curves as described in Li, Y. and McClements, D. J., New Mathematical Model for Interpreting pH-Stat Digestion Profiles: Impact of Lipid Droplet Characteristics on in Vitro Digestibility”, Journal of Agricultural and Food Chemistry, 58:8085-92 (2010), which is incorporated herein in its entirety. The release of free fatty acids from the digestible oil (corn oil) was calculated by subtracting the FFA concentration determined at each time point for the pure lemon oil nanoemulsions from the FFA concentration determined for the nanoemulsions containing corn oil. […]

Question: For `COC1=C(OC)C(=O)C(C/C=C(\C)CC/C=C(\C)CC/C=C(\C)CC/C=C(\C)CC/C=C(\C)CC/C=C(\C)CC/C=C(\C)CC/C=C(\C)CC/C=C(\C)CCC=C(C)C)=C(C)C1=O` [CoQ10, Coenzyme Q10], which “bioavailability in small intestinal tissues” value [1] is on record?
Answer: The value was “highest”.

Question: What about the “absorption of CoQ10 in all regions of the small intestine” value ([1]; rat, in vivo) of the same molecule?
Answer: The value was “some absorption”.

Question: And the “absorption of CoQ10 in duodenum” value ([1]; rat, in vivo)?
Answer: The value was “no significant differences”.

Question: What about the “absorption of CoQ10 in jejunum and ileum” value ([1]; rat, in vivo) of the same molecule?
Answer: Its value is “significantly higher”.

Question: Which results are given for `COc1cc(/C=C/C(=O)CC(=O)/C=C/c2ccc(O)c(OC)c2)ccc1O` [curcumin]?
Answer: solubility at 60 min ([2]; incubation for 60 min at 30° C.): ~54 µg/mL (≈ 147 µM); solubility at 60 min ([2]; incubation for 60 min at 90° C. (so in the source)): ~218 µg/mL (≈ 592 µM); solubility at 10 min ([3]; excipient emulsion, large droplets): 230 µg/mL (≈ 624 µM); solubility at 10 min ([3]; excipient emulsions, small and medium droplets): 270 to 280 µg/mL (≈ 733 to 760 µM); amount of curcumin present within the emulsion ([3]; large emulsion): ~88 ± 26 µg/mL; amount of curcumin present within the emulsion ([3]; medium emulsion): ~104 ± 6 µg/mL; amount of curcumin present within the emulsion ([3]; small emulsion): around 66±1 μg/mL; dissolution of curcumin crystals in corn oil (turbidity versus time) ([4]; held at 30° C.): only dissolved slowly; dissolution of curcumin crystals in corn oil (turbidity versus time) ([4]; held at 100° C.): rapidly dissolved; solubility ([4]; bulk corn oil, oil or lipid, thermodynamic from solid, ambient temperature, estimated from turbidity at 3 and 4 mg/mL): 3000 to 4000 µg/mL (≈ 8140 to 10900 µM); dissolution of curcumin crystals in curcumin-excipient emulsion mixtures ([5]; all mixtures held at 100° C.): rapidly and completely dissolved; dissolution of curcumin crystals in curcumin-excipient emulsion mixtures ([5]; all mixtures incubated at 30° C.): did not completely dissolve; dissolution of curcumin crystals in curcumin-emulsion mixtures ([6]; held at 100° C., any incubation time): rapidly and completely dissolved; dissolution of curcumin crystals in curcumin-emulsion mixtures ([6]; incubated at 30° C. from 10 to 120 min): did not completely dissolve

Question: Which results are given for `CCCCCCCCCCCCCCCCC(=O)O` [heptadecanoic acid, reference compound]?
Answer: bioavailability in small intestinal tissues [1]: highest; absorption of heptadecanoic acid in duodenum and jejunum ([1]; rat, in vivo): slightly more absorption; absorption of heptadecanoic acid in duodenum, jejunum and ileum ([1]; rat, in vivo): significantly higher

Question: For `CC1=C(/C=C/C(C)=C/C=C/C(C)=C/C=C/C=C(C)/C=C/C=C(C)/C=C/C2=C(C)CCCC2(C)C)C(C)(C)CCC1` [β-carotene], which “bioaccessibility of β-carotene” value [7] is on record?
Answer: Its value is “increases the bioaccessibility”.

Question: What about the “bioaccessibility of β-carotene” value [8] of the same molecule?
Answer: The value was “≈ 5%”.
